Peptide text beside a SMILES is read from it. * marks the point of attachment. 5FAM = O=C1OC2(c3ccc(O)cc3Oc3cc(O)ccc32)c2ccc(C(=O)*)cc21
How the values were obtained:
hCMEC/D3 cells [1] = test: Trypan Blue exclusion test; type: cell-based, human; conditions: after receptor down regulation
RAGE = RAGE silencing with siPORT Amine, Western blot; type: cell-based, human; conditions: 28 nM siRNA with siPORT Amine
Experimental: (§1) hCMEC/D3 cells were transfected with anti-TfR siRNA [sense sequence ([NT]) and antisense sequence ([NT])] or anti-RAGE siRNA [sense sequence ([NT]) and antisense sequence [NT]] or control siRNA using siPORT Amine transfection agent, according to the manufacturer' Neofection protocol. Briefly, siPORT Amine transfection reagent (7 μL) was added to serum-free cell medium to a final volume of 100 μL and vortexed. […] The mixture was gently mixed and incubated at room temperature for 20 min. The transfection agent/siRNA complex was added to culture plates containing 2.3 × 10^5 hCMEC/D3 cells in 2.3 mL normal growth medium. The final concentration of siRNA was 28 nM. After 24 h incubation, the medium containing transfection agent/siRNA complex was removed and fresh growth medium was added. After 48 h post transfection, the level of target protein (TfR or RAGE) was determined by Western blotting. […] Uptake was quantified by measuring fluorescence using FACS. Transferrin receptor and RAGE expression level in human cells was determined by Western blot analysis. Briefly, cells were seeded in 75 cm^2-flasks and grown to reach 60-70% confluence. The cells were washed in ice-cold PBS three times and then scraped off the flask and collected by centrifugation. The pelleted cells were lysed for 10 min at room temperature on a shaker (900 rpm) following the ProteoJETTM Mammalian Cell Lysis Reagent protocol. Lysates were spun in a centrifuge at 18,000 × g for 15 min and the supernatant was collected. Equal protein aliquots were resolved by SDS-PAGE, transferred to nitrocellulose membranes using iBot Dry Blotting system (Invitrogen, CA, USA), immunoblotted with primary antibodies (mouse anti-human TfR antibody or rabbit polyclonal to mouse and human RAGE) (1;200 and 1:750, respectively) and detected with HRP-Goat-anti-mouse (or rabbit) IgG (H + L) secondary antibody (1:3000). Tubulin was immunoblotted with mouse anti-human-β-tubulin (1:200) and detected with HRP-Goat-anti-mouse IgG (H + L) secondary antibody (1:3000). These were followed by incubation with Novex® ECL Chemiluminescent Substrate Reagent Kit. The Bands were quantified with ImageJ 1.44p (http://imagej.nih.gov/ij/).

TfR [2] = test: TfR silencing with siPORT Amine, Western blot; type: cell-based, human; conditions: 28 nM siRNA with siPORT Amine
Experimental: as §1

TfR [3] = test: TfR silencing by peptide/siRNA nano-assemblies, Western blot; type: cell-based, human
Experimental: Transferrin receptor and RAGE expression level in human cells was determined by Western blot analysis. Briefly, cells were seeded in 75 cm^2-flasks and grown to reach 60-70% confluence. The cells were washed in ice-cold PBS three times and then scraped off the flask and collected by centrifugation. The pelleted cells were lysed for 10 min at room temperature on a shaker (900 rpm) following the ProteoJETTM Mammalian Cell Lysis Reagent protocol. Lysates were spun in a centrifuge at 18,000 × g for 15 min and the supernatant was collected. Equal protein aliquots were resolved by SDS-PAGE, transferred to nitrocellulose membranes using iBot Dry Blotting system (Invitrogen, CA, USA), immunoblotted with primary antibodies (mouse anti-human TfR antibody or rabbit polyclonal to mouse and human RAGE) (1;200 and 1:750, respectively) and detected with HRP-Goat-anti-mouse (or rabbit) IgG (H + L) secondary antibody (1:3000). Tubulin was immunoblotted with mouse anti-human-β-tubulin (1:200) and detected with HRP-Goat-anti-mouse IgG (H + L) secondary antibody (1:3000). These were followed by incubation with Novex® ECL Chemiluminescent Substrate Reagent Kit. The Bands were quantified with ImageJ 1.44p (http://imagej.nih.gov/ij/). […] Next, the mixtures were diluted with saline to a final peptide concentration 5 μM for TEM studies. […] After 24 h incubation, the medium was replaced by fresh growth medium. After another 48 h of incubation, the level of the target protein was determined by Western blotting. The results were compared with parallel experiments containing nano-assemblies formed from FAM-CGY and an irrelevant siRNA as well as transfection procedures with complexes formed between siRNA and siPORT Amine transfection agent. Cy3-siRNA uptake was quantified by measuring median cell fluorescence using FACS.

IL-6 = test: ELISA of IL-6 in hippocampus; type: in vivo, ICR mice; conditions: 24 h after i.v. (LPS 24 h); Ave.
Experimental: After 4, 24 and 72 h post injection, mice were sacrificed and perfused with 10 mL 0.9% (w/v) saline at a rate of 2 mL min^−1.
Hippocampus was dissected out, rinsed in ice-cold PBS thoroughly, weighted and immediately frozen in liquid nitrogen. Tissues were cut into small pieces and homogenized in 1 mL ice-cold PBS with a glass homogeniser and sonicated with an ultrasonic cell disrupter to break the cell membranes. Homogenates were centrifuges for 5 min at 5,000 × g and supernatants were assayed immediately for quantitative determination of TNF-α, IL-6, IL-1β, Iba-1 and GFAP by corresponding ELISA kits, respectively in accordance with manufacturer’s instructions.

IL-1β = test: ELISA of IL-1β in hippocampus; type: in vivo, ICR mice; conditions: 24 h after i.v. (LPS 24 h); Ave.
Iba-1 = test: ELISA of Iba-1 in hippocampus; type: in vivo, ICR mice; conditions: 24 h after i.v. (LPS 24 h); Ave.
GFAP = test: ELISA of GFAP in hippocampus; type: in vivo, ICR mice; conditions: 24 h after i.v. (LPS 24 h); Ave.
[4] = Blood count after intravenous injection; type: in vivo, ICR mice; conditions: mean ± s.d., n = 3
From the text: Supplementary Table 2. Blood count following intravenous injection of FAM-CGY NLCs in free form and complexed with siRNA
Samples WBC RBC HGB HCT MCV MCH MCHC PLT
WBC: white blood cell; RBC: red blood cell count; HGB: haemoglobin; HCT: haematocrit; MCV: mean corpuscular volume; MCH: mean corpuscular haemoglobin; MCHC: mean corpuscular
significance (*p < 0.05). The results are mean ± s.d. (n = 3 animals per group). The experiment was repeated twice with identical results. The siRNA represent BACE-1-specific siRNA. The
final concentration of the peptide conjugate was 10 µM and that of siRNA was 48 nM, based on blood volume calculation equivalent to 6% of the body weight. LPS = lipopolysaccharide.

claudin-5 = test: Claudin-5 silencing, Western blot; type: cell-based, human; conditions: siRNA delivered with FAM-CGY (5 µM), 72 h after transfection
Experimental: Peptide/siRNA assemblies were formed by dropwise addition (80–240 nM range) of either Cy3-siRNA or functional anti-TfR siRNA or anti-Claudin-5 siRNA (with the sense and antisense sequences of 5′-[…]tt-3′ and 5′-[…]gc-3′) to 50 µM FAM-CGY in physiological saline and incubated for 30 min. Next, the mixtures were diluted with saline to a final peptide concentration 5 µM for TEM studies. In vitro uptake and silencing experiments were performed in hCMEC/D3 cells. Briefly, peptide/siRNA nano-assemblies (5 µM FAM-CGY and either 8 or 16 or 24 nM functional siRNA, final concentration) were added to 2.3 × 10^5 hCMEC/D3 cells. After 24 h incubation, the medium was replaced by fresh growth medium. After another 48 h of incubation, the level of the target protein was determined by Western blotting. The results were compared with parallel experiments containing nano-assemblies formed from FAM-CGY and an irrelevant siRNA as well as transfection procedures with complexes formed between siRNA and siPORT Amine transfection agent. Cy3-siRNA uptake was quantified by measuring median cell fluorescence using FACS.
Supplementary Fig. 20. […] FAM-CGY (5 µM final concentration)/CLDN5-specific siRNA assemblies effectively down regulates CLDN5 in hCMEC/D3 cells as determined by Western blotting. […] CLDN5 expression was measured 72 h after transfection. […]

hCMEC/D3 cells [5] = test: Cell uptake by flow cytometry; type: cell-based, human; conditions: 5 µM, 24 h, 37 °C, flow cytometry (Supplementary Fig. 13)
Experimental: Peptide internalisation was measured by flow cytometry (FACS ArrayTM Cell Analysis, Becton, Dickinson and Company, NJ, USA). Cells (1 × 10^5 cm^−2) were seeded on 24-well plates and grown 1 day at 37 °C and 5% CO2 in order to reach 60–70% confluence. The cells were washed 3 times with pre-heated PBS. The uptake studies were initiated by adding 500 µL of 5 µM fluorescence-labelled peptides (diluted in cell medium containing with different serum concentration). Serum concentration in incubation varied from 5 to 20% (v/v). […] A total of 10,000 cells were analysed by flow cytometry.

[6] = hCMEC/D3, control siRNA = 100.00, replicate 1

RAGE siRNA: sense 5′-GGUGGAACCGUAACCUGAtt-3′, antisense 5′-UCAGGGUUACGGUUCCACCag-3′ (sense GGUGGAACCGUAACCUGATT; antisense UCAGGGUUACGGUUCCACCAG; chemistry not given here)
cell viability (hCMEC/D3 cells [1]): > 95%
RAGE expression level (%) (RAGE; [6]): 54.86%
RAGE expression level (%) (RAGE; Ave.): 53.86%
RAGE expression level (%) (RAGE; replicate 2): 57.89%
RAGE expression level (%) (RAGE; replicate 3): 48.82%

TfR siRNA: sense 5′-GGUCAUCAGGAUUGCCUAAtt-3′, antisense 5′-UUAGGCAAUCCUGAUGACCga-3′ (sense GGUCAUCAGGAUUGCCUAATT; antisense UUAGGCAAUCCUGAUGACCGA; chemistry not given here)
TfR expression level (%) (TfR [2]; [6]): 30.26%
TfR expression level (%) (TfR [2]; Ave.): 34.58%
TfR expression level (%) (TfR [2]; replicate 2): 32.56%
TfR expression level (%) (TfR [2]; replicate 3): 40.91%
cell viability (hCMEC/D3 cells [1]): > 95%
TfR expression leve (% of control) (TfR [3]; 8 nM siRNA, presumably complexed with 5 µM FAM-CGY, hCMEC/D3, 24 h + 48 h, replicate 1): 75.56%
TfR expression leve (% of control) (TfR [3]; 8 nM siRNA, Ave.): 70.89%
TfR expression leve (% of control) (TfR [3]; 8 nM siRNA, replicate 2): 65.03%
TfR expression leve (% of control) (TfR [3]; 8 nM siRNA, replicate 3): 72.08%
TfR expression leve (% of control) (TfR [3]; 16 nM siRNA, Ave.): 54.45%
TfR expression leve (% of control) (TfR [3]; 24 nM siRNA, presumably siRNA alone, Ave.): 90.00%
TfR expression leve (% of control) (TfR [3]; 24 nM siRNA, presumably with siPORT, Ave.): 38.58%

lipopolysaccharide from Escherichia coli O55:B5 [LPS]
IL-6 in hippocampus (Figure 6f) (IL-6): 9.69
IL-1β in hippocampus (Figure 6g) (IL-1β): 36.79
Iba-1 in hippocampus (Figure 6h) (Iba-1): 1.68
GFAP in hippocampus (Figure 6i) (GFAP): 289.26
WBC ([4]; 24 h after i.v. (LPS 200 μg kg−1)): 1.49±0.26 (×109)L-1
HCT ([4]; 24 h after i.v.): 71.90±6.10%
HGB ([4]; 24 h after i.v.): 152.25±14.25 gL-1
MCH ([4]; 24 h after i.v.): 17.45 ± 0.45 pg
MCHC ([4]; 24 h after i.v.): 211.75±2.63 gL-1
MCV ([4]; 24 h after i.v.): 82.78 ± 1.23 fL
PLT ([4]; 24 h after i.v.): 282.45±28.83 (×109)L-1
RBC ([4]; 24 h after i.v.): 8.72±0.61 (×1012)L-1

claudin-5-specific siRNA: sense 5′-CCUUAACAGACGGAAUGAAtt-3′, antisense 5′-UUCAUUCCGUCUGUUAAGGgc-3′ (sense CCUUAACAGACGGAAUGAATT; antisense UUCAUUCCGUCUGUUAAGGGC; chemistry not given here)
claudin-5 expression (claudin-5): downregulation of claudin-5

CC[C@H](C)[C@H](NC(=O)[C@H](CC(N)=O)NC(=O)[C@H](Cc1c[nH]cn1)NC(=O)[C@@H](NC(=O)[C@@H]1CCCN1C(=O)[C@H](CCCNC(=N)N)NC(=O)[C@H](Cc1ccc(O)cc1)NC(=O)CNC(=O)c1ccc2c(c1)C(=O)OC21c2ccc(O)cc2Oc2cc(O)ccc21)C(C)C)C(=O)N[C@@H](CCCNC(=N)N)C(=O)NCC(=O)N[C@@H](Cc1c[nH]cn1)C(=O)N[C@@H](Cc1c[nH]c2ccccc12)C(=O)N[C@@H](C)C(=O)N1CCC[C@H]1C(=O)NCC(=O)O [FAM-GYR] (5FAM-GYRPVHNIRGHWAPG-OH)
cellular uptake in contrast to FAM-CGY (hCMEC/D3 cells [5]): relatively low

Reference: paper PMC6789111, “Crossing the blood-brain-barrier with nanoligand drug carriers self-assembled from a phage display peptide” (Nature Communications, 2019)
